US20060069132A1, “Azolecarboxamide herbicides” (priority 2004, published 2006)

Experiments:
velvetleaf [1] = assay: Test B pre-/postemergence herbicide test; format: in vivo, Abutilon theophrasti; conditions: for Velvetleaf plant response rating: postemergence
How it was run: (§1)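 Formulation: non-phytotoxic solvent mix with surfactant. Timing: preemergence on seed and postemergence on 2–18 cm plants, applied concurrently. Readout after 13–15 d greenhouse: visual 0–100 control rating against controls.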

barnyardgrass [2] = assay: Test B pre-/postemergence herbicide test; format: in vivo, Echinochloa crus-galli; conditions: for Barnyardgrass plant response rating: postemergence
How it was run: (§2)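 Greenhouse pot assay with simultaneous preemergence (treated seed) and postemergence (2–18 cm seedlings) applications of surfactant-containing, non-phytotoxic solvent formulations. Response scored visually 13–15 days later on a 0–100 scale, 100 meaning complete control.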

pigweed = assay: Test B pre-/postemergence herbicide test; format: in vivo, Amaranthus retroflexus; conditions: for Pigweed plant response rating: postemergence
How it was run: as §1

barnyardgrass [3] = assay: Test A pre-/postemergence herbicide test; format: in vivo, Echinochloa crus-galli
How it was run: (§3)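 Greenhouse injury scoring (0–100, complete control = 100) at approximately ten days follows simultaneous pre- and postemergence application. Soil received a directed spray after seeding; seedlings of 2–10 cm at the one- to two-leaf stage were sprayed to runoff.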

velvetleaf [4] = assay: Test A pre-/postemergence herbicide test; format: in vivo, Abutilon theophrasti
How it was run: as §3

redroot pigweed = assay: Test A pre-/postemergence herbicide test; format: in vivo, Amaranthus retroflexus
How it was run: as §3

blackgrass = assay: Test B postemergence herbicide test; format: in vivo, Alopecurus myosuroides; conditions: postemergence
How it was run: (§4)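 Greenhouse test; postemergence application to plants at 1–4 leaves (2–18 cm); paddy species at 2 leaves; evaluated visually vs controls at 13–15 days; scale 0–100 (100 = complete control).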

morningglory [5] = assay: Test B pre-/postemergence herbicide test; format: in vivo, Ipomoea coccinea; conditions: for Morningglory plant response rating: postemergence
How it was run: as §2

Surinam grass = assay: Test B pre-/postemergence herbicide test; format: in vivo, Urochloa decumbens; conditions: for Surinam Grass plant response rating: postemergence
How it was run: as §1

morningglory [6] = assay: Test A pre-/postemergence herbicide test; format: in vivo, Ipomoea spp.
How it was run: as §3

lambsquarters = assay: Test B pre-/postemergence herbicide test; format: in vivo, Chenopodium album; conditions: for Lambsquarters plant response rating: postemergence
How it was run: as §1

giant foxtail [7] = assay: Test B pre-/postemergence herbicide test; format: in vivo, Setaria faberi; conditions: for Foxtail, Giant plant response rating: postemergence
How it was run: as §1

large crabgrass [8] = assay: Test A pre-/postemergence herbicide test; format: in vivo, Digitaria sanguinalis
How it was run: as §3

wheat = assay: Test B postemergence herbicide test; format: in vivo, Triticum aestivum; parameters: key to Wheat plant response rating: 0 = no effect, 100 = complete control; conditions: postemergence
How it was run: (§5)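 Postemergence plants were sprayed with formulated test chemicals at 2 to 18 cm height (1- to 4-leaf stage); paddy species were grown to the 2-leaf stage. After 13 to 15 days in a greenhouse, injury was rated visually against untreated controls on a 0–100 scale (0 = no effect, 100 = complete control).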

rice = assay: Test B flooded paddy test; format: in vivo, Oryza sativa; conditions: 1000 g ai/ha, scale 0 to 100 (0 no effect, 100 complete control)
How it was run: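 Scale 0–100: zero equals no visible effect, 100 complete control, judged by eye relative to controls. Timing: 13 to 15 days in greenhouse post-treatment. Growth stage at spraying: two leaves (paddy) or one to four leaves, 2–18 cm (postemergence).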

corn = assay: Test B pre-/postemergence herbicide test; format: in vivo, Zea mays; conditions: for Corn plant response rating: postemergence
How it was run: as §1

large crabgrass [9] = assay: Test B pre-/postemergence herbicide test; format: in vivo, Digitaria sanguinalis; conditions: for Crabgrass, Large plant response rating: postemergence
How it was run: as §1

giant foxtail [10] = assay: Test A pre-/postemergence herbicide test; format: in vivo, Setaria faberi
How it was run: as §3

wild oat = assay: Test B postemergence herbicide test; format: in vivo, Avena fatua; conditions: postemergence
How it was run: as §5

ducksalad = assay: Test B flooded paddy test; format: in vivo, Heteranthera limosa; conditions: 1000 g ai/ha, scale 0 to 100 (0 no effect, 100 complete control)
How it was run: as §4

cocklebur = assay: Test B pre-/postemergence herbicide test; format: in vivo, Xanthium strumarium; conditions: for Cocklebur plant response rating: postemergence
How it was run: as §2

[11] = test system: small flower umbrella sedge; assay: Test B flooded paddy test; format: in vivo, Cyperus difformis; conditions: 1000 g ai/ha, scale 0 to 100 (0 no effect, 100 complete control)
How it was run: as §4

barnyardgrass [12] = assay: Test B flooded paddy test; format: in vivo, Echinochloa crus-galli; conditions: 1000 g ai/ha, scale 0 to 100 (0 no effect, 100 complete control)
How it was run: as §4

[13] = 125 g ai/ha, 0 is no effect, 100 is complete control, preemergence
[14] = 125 g ai/ha, visual rating, scale 0 (no effect) to 100 (complete control)
[15] = 500 g ai/ha, scale 0 to 100, 0 is no effect, 100 is complete control
[16] = 500 g ai/ha, visual rating, 0 = no effect, 100 = complete control, preemergence
[17] = Postemergence, 500 g ai/ha, 0 to 100 scale, 0 no effect, 100 complete control
[18] = Postemergence, 2000 g ai/ha, 0 to 100 scale, 0 no effect, 100 complete control
[19] = Preemergence, 2000 g ai/ha, visual rating, 0 to 100 scale (0 no effect, 100 complete control)
[20] = preemergence, 500 g ai/ha, visual injury, 0 to 100 scale (0 no effect, 100 complete control)

In the case of `CCn1nc(C(C)(C)C)cc1C(=O)Nc1cc(OC)ccc1F` [Compound 347], the “Plant response rating (0 to 100 scale), Velvetleaf” value (velvetleaf [1]; [13]) is reported as 0, the “Velvetleaf plant response rating” value (velvetleaf [1]; [14]) is reported as 0 and the “Velvetleaf plant response rating” value (velvetleaf [1]; [15]) is reported as 0. For the same molecule, the “Plant response rating (0 to 100 scale), Barnyardgrass” value (barnyardgrass [2]; [13]) was 0, the “Barnyardgrass plant response rating” value (barnyardgrass [2]; [14]) was 0 and the “Plant response rating, Barnyardgrass” value (barnyardgrass [2]; [16]) was 0. The “Barnyardgrass plant response rating” value (barnyardgrass [2]; [15]) was 0, the “Plant response rating (0 to 100 scale), Pigweed” value (pigweed; [13]) was 0 and the “Pigweed plant response rating” value (pigweed; [14]) was 0. The “Plant response rating, Pigweed” value (pigweed; [16]) was 0, the “Pigweed plant response rating” value (pigweed; [15]) was 10 and the “Barnyardgrass plant response rating” value (barnyardgrass [3]; [17]) was 0. The “Plant response rating, Barnyardgrass” value (barnyardgrass [3]; [18]) was 0, the “Barnyardgrass plant response rating” value (barnyardgrass [3]; [19]) was 0 and the “Barnyardgrass plant response rating” value (barnyardgrass [3]; [20]) was 0. For the same molecule, the “Velvetleaf plant response rating” value (velvetleaf [4]; [17]) was 0, the “Plant response rating, Velvetleaf” value (velvetleaf [4]; [18]) was 0 and the “Velvetleaf plant response rating” value (velvetleaf [4]; [19]) was 0. The “Velvetleaf plant response rating” value (velvetleaf [4]; [20]) was 0, the “Pigweed plant response rating” value (redroot pigweed; [17]) was 0 and the “Plant response rating, Pigweed” value (redroot pigweed; [18]) was 0. For the same molecule, the “Pigweed plant response rating” value (redroot pigweed; [19]) was 0, the “Pigweed plant response rating” value (redroot pigweed; [20]) was 0 and the “Blackgrass plant response rating” value (blackgrass; [14]) was 30. The “Blackgrass plant response rating” value (blackgrass; [15]) was 30, the “Plant response rating (0 to 100 scale), Morningglory” value (morningglory [5]; [13]) was 0 and the “Morningglory plant response rating” value (morningglory [5]; [14]) was 0. The “Plant response rating, Morningglory” value (morningglory [5]; [16]) was 0, the “Morningglory plant response rating” value (morningglory [5]; [15]) was 10 and the “Plant response rating (0 to 100 scale), Surinam Grass” value (Surinam grass; [13]) was 0. For the same molecule, the “Surinam Grass plant response rating” value (Surinam grass; [14]) was 0, the “Plant response rating, Surinam Grass” value (Surinam grass; [16]) was 0 and the “Surinam Grass plant response rating” value (Surinam grass; [15]) was 0. For the same molecule, the “Morningglory plant response rating” value (morningglory [6]; [17]) was 0, the “Plant response rating, Morningglory” value (morningglory [6]; [18]) was 0 and the “Morningglory plant response rating” value (morningglory [6]; [19]) was 0. The “Morningglory plant response rating” value (morningglory [6]; [20]) was 0, the “Plant response rating (0 to 100 scale), Lambsquarters” value (lambsquarters; [13]) was 0 and the “Lambsquarters plant response rating” value (lambsquarters; [14]) was 10. The “Plant response rating, Lambsquarters” value (lambsquarters; [16]) was 0, the “Lambsquarters plant response rating” value (lambsquarters; [15]) was 10 and the “Plant response rating (0 to 100 scale), Foxtail, Giant” value (giant foxtail [7]; [13]) was 0. For the same molecule, the “Foxtail, Giant plant response rating” value (giant foxtail [7]; [14]) was 0, the “Plant response rating, Foxtail, Giant” value (giant foxtail [7]; [16]) was 0 and the “Foxtail, Giant plant response rating” value (giant foxtail [7]; [15]) was 0. The “Crabgrass, Large plant response rating” value (large crabgrass [8]; [17]) was 0, the “Plant response rating, Crabgrass, Large” value (large crabgrass [8]; [18]) was 0 and the “Crabgrass, Large plant response rating” value (large crabgrass [8]; [19]) was 0. The “Crabgrass, Large plant response rating” value (large crabgrass [8]; [20]) was 0, the “Wheat plant response rating” value (wheat; [14]) was 0 and the “Wheat plant response rating” value (wheat; [15]) was 0. The “Rice plant response rating” value (rice) was 0, the “Plant response rating (0 to 100 scale), Corn” value (corn; [13]) was 0 and the “Corn plant response rating” value (corn; [14]) was 0. For the same molecule, the “Plant response rating, Corn” value (corn; [16]) was 0, the “Corn plant response rating” value (corn; [15]) was 0 and the “Plant response rating (0 to 100 scale), Crabgrass, Large” value (large crabgrass [9]; [13]) was 0. For the same molecule, the “Crabgrass, Large plant response rating” value (large crabgrass [9]; [14]) was 0, the “Plant response rating, Crabgrass, Large” value (large crabgrass [9]; [16]) was 0 and the “Crabgrass, Large plant response rating” value (large crabgrass [9]; [15]) was 0. For the same molecule, the “Foxtail, Giant plant response rating” value (giant foxtail [10]; [17]) was 0, the “Plant response rating, Foxtail, Giant” value (giant foxtail [10]; [18]) was 0 and the “Foxtail, Giant plant response rating” value (giant foxtail [10]; [19]) was 0. For the same molecule, the “Foxtail, Giant plant response rating” value (giant foxtail [10]; [20]) was 0, the “Oat, Wild plant response rating” value (wild oat; [14]) was 0 and the “Oat, Wild plant response rating” value (wild oat; [15]) was 20. For the same molecule, the “Ducksalad plant response rating” value (ducksalad) was 0, the “Plant response rating (0 to 100 scale), Cocklebur” value (cocklebur; [13]) was 0 and the “Cocklebur plant response rating” value (cocklebur; [14]) was 0. The “Plant response rating, Cocklebur” value (cocklebur; [16]) was 0, the “Cocklebur plant response rating” value (cocklebur; [15]) was 0 and the “Sedge, Umbrella plant response rating” value [11] was 0. For the same molecule, the “Barnyardgrass plant response rating” value (barnyardgrass [12]) was 0.
